In brackets after ≈: the same amount, converted by molar mass.
How the values were obtained:
[1] = tested on: Acinetobacter baumannii; assay: Broth microdilution MIC (Example 12); format: cell-based
[2] = tested on: Klebsiella pneumoniae; conditions: K. pneumoniae ATCC BAA-1705; CLSI established QC range; cited from earlier work

C[C@@H](O)[C@H]1C(=O)N2C(C(=O)O)=C(S[C@@H]3CN[C@H](C(=O)N(C)C)C3)[C@H](C)[C@H]12 [MEM]
MIC ([1]; A. baumannii CDC 273, ESBL/OXA): >8 µg/mL
MIC ([1]; A. baumannii CDC 274, ESBL/OXA): >8 µg/mL
MIC ([1]; A. baumannii CDC 275, ESBL/OXA): >8 µg/mL
MIC ([1]; A. baumannii CDC 277, ESBL/OXA): >8 µg/mL
MIC ([1]; A. baumannii CDC 284, ESBL/OXA): >8 µg/mL
MIC ([1]; A. baumannii CDC 307, OXA): 8 µg/mL (≈ 20.9 µM)
MIC ([1]; A. baumannii CDC 308, ESBL/OXA): 8 µg/mL (≈ 20.9 µM)
MIC ([1]; A. baumannii CDC 311, OXA): >8 µg/mL
MIC ([1]; A. baumannii CDC 312, OXA): 4 µg/mL (≈ 10.4 µM)
MIC ([1]; A. baumannii CDC 313, ESBL/OXA): >8 µg/mL
MIC ([1]; A. baumannii NCTC 13304, OXA): >8 µg/mL
QC range of MIC [2]: (8-64) μg/mL

From patent US20230124862A1, “BISMUTH THIOL COMPOUNDS AND COMPOSITIONS AND METHODS OF TREATING MICROBIAL CO-INFECTIONS” (Microbion Corporation, priority 2020, published 2023)
